Experimental data published in ChEMBL document CHEMBL4507268 (2021).

How the values were obtained:
Details in all cases: Compound concentration 1.0 uM
[1] = target: T1, Beta-adrenergic receptor kinase 1 (Homo sapiens) (UniProt P25098)
T1 sequence (whole entry): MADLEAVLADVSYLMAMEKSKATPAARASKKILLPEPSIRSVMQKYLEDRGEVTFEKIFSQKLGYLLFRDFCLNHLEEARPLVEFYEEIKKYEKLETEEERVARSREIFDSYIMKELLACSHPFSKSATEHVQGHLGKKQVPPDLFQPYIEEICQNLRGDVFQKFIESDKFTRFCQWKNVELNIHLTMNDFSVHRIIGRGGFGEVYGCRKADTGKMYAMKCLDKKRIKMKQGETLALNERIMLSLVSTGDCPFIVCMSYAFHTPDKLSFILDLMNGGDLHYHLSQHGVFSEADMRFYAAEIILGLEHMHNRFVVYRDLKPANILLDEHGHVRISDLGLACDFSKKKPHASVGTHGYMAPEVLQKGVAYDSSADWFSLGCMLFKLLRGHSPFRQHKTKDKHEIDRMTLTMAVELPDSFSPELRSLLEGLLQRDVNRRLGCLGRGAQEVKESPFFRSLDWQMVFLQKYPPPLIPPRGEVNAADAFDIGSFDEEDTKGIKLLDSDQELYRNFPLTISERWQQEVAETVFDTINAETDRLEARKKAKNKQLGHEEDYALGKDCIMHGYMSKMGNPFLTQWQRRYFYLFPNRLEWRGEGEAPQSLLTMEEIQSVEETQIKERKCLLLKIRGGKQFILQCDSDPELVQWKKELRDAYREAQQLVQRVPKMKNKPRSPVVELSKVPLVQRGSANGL

[2] = target: cAMP-dependent protein kinase catalytic subunit beta (Homo sapiens) (UniProt P22694)
[3] = target: Receptor-interacting serine/threonine-protein kinase 2 (Homo sapiens) (UniProt O43353)
[4] = target: Cyclin-dependent kinase-like 4 (Homo sapiens) (UniProt Q5MAI5)
[5] = target: T2, Serine/threonine-protein kinase ULK2 (Homo sapiens) (UniProt Q8IYT8)
T2 sequence (whole entry): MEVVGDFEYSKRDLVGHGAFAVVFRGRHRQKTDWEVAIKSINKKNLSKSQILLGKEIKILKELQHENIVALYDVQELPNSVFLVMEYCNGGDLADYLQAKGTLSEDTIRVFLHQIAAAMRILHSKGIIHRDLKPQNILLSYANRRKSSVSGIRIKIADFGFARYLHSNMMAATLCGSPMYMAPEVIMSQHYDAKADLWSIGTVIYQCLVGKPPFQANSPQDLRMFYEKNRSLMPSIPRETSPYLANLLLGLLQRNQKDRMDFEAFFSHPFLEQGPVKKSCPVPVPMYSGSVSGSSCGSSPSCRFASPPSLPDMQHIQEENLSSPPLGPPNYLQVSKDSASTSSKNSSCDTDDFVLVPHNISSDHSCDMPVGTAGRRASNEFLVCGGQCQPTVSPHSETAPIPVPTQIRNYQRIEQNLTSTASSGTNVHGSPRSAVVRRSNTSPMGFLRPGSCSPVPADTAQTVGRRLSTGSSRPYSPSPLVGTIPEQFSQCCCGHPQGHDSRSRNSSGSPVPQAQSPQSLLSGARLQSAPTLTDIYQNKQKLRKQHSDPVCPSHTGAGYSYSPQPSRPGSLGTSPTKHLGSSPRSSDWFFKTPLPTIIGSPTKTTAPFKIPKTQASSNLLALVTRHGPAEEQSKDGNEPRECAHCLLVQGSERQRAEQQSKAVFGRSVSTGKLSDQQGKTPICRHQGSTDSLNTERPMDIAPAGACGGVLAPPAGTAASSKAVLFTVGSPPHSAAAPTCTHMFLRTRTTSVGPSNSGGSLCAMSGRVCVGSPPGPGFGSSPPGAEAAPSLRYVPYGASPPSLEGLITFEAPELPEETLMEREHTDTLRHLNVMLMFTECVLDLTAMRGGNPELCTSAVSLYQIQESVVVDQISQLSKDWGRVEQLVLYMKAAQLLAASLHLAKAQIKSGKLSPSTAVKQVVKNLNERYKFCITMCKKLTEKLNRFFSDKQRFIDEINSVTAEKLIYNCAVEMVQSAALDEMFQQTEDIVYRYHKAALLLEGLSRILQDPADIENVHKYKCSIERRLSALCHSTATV

[6] = target: Dual specificity tyrosine-phosphorylation-regulated kinase 1A (Homo sapiens) (UniProt Q13627)
[7] = target: T3, Dual specificity tyrosine-phosphorylation-regulated kinase 2 (Homo sapiens) (UniProt Q92630)
T3 sequence (whole entry): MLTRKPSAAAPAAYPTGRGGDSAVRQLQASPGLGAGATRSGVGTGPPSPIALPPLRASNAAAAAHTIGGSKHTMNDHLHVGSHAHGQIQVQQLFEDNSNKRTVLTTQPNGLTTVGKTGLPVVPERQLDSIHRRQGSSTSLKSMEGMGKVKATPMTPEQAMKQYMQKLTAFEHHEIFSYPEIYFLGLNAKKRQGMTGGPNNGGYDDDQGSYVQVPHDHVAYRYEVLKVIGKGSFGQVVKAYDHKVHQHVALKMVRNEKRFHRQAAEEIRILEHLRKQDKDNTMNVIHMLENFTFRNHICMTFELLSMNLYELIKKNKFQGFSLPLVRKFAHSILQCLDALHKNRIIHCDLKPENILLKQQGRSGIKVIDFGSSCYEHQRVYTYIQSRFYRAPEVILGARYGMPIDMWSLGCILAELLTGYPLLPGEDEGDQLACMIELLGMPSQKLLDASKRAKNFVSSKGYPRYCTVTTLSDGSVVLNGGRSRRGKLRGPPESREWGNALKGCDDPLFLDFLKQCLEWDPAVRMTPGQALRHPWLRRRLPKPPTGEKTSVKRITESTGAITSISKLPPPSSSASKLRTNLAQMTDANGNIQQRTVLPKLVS

[8] = target: Tyrosine-protein kinase BTK (Homo sapiens) (UniProt Q06187)

Measured: % residual kinase activity

Chain of Cyclin-dependent kinase-like 4 (Homo sapiens) (Q5MAI5 whole entry): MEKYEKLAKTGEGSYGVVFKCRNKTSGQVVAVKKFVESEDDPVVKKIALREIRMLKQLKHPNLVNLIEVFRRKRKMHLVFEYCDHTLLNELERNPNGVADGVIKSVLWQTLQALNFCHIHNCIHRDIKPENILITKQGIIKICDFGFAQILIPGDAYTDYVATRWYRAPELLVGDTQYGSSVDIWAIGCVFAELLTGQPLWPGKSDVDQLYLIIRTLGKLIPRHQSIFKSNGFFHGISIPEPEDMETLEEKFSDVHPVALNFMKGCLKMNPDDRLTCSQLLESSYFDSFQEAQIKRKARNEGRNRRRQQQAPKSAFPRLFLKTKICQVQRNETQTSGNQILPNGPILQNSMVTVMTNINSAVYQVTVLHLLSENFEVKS
Chain of Tyrosine-protein kinase BTK (Homo sapiens) (Q06187 whole entry): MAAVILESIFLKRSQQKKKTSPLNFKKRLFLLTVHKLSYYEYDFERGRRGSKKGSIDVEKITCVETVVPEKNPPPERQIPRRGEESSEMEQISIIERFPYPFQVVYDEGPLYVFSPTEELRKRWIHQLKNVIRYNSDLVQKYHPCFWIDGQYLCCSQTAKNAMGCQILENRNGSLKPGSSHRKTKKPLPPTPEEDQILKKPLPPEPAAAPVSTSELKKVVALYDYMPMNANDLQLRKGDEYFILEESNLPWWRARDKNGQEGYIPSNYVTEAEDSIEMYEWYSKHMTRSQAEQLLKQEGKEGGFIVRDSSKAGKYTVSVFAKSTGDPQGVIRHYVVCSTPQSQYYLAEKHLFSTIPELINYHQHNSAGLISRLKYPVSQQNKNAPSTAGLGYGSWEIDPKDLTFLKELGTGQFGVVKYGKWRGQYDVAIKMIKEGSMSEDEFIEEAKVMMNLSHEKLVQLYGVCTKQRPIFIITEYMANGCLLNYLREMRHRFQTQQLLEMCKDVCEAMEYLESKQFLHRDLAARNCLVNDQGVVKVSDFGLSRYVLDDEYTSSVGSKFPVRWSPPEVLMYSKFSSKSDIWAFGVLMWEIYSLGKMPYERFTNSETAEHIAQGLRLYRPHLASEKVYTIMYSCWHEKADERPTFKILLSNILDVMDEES
Chain of Receptor-interacting serine/threonine-protein kinase 2 (Homo sapiens) (O43353 whole entry): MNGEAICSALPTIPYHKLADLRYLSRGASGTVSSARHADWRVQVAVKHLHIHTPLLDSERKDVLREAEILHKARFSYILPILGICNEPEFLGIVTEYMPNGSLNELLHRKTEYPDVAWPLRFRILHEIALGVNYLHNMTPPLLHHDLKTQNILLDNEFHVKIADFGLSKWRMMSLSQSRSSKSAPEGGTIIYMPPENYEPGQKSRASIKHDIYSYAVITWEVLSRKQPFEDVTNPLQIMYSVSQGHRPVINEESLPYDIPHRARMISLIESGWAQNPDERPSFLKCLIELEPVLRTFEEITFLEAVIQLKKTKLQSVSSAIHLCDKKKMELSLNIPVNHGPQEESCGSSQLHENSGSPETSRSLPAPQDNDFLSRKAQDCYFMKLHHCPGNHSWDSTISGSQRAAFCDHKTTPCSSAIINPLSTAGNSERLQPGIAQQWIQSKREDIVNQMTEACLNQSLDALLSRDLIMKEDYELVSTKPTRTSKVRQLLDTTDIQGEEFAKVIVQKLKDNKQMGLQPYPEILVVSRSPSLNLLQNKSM

CN1CCN(c2cnc3c(C4CCN(C(=O)c5ccc(OC(F)(F)F)cc5N)CC4)ncnc3c2)CC1 [BAY-885]
inactive: [1] 85% | [2] 89% | [3] 101% | [4] 103% | [5] 102% | [6] 112% | [7] 105% | [8] 98%
